# PubChem BioAssay AID192 (DTP/NCI, 2004)
# Where “and” joins values, the source holds several entries; their conditions need not be identical. Equal values may be shown once. Inconclusive results and toxic doses are left out.
# Test system: BDF1 mice, B16 melanoma ip, median survival T/C
# Assay: NCI In Vivo Anticancer Drug Screen. Data for tumor model B16 Melanoma (intraperitoneal) in B6D2F1 (BDF1) mice
# Settings: endpoint: median survival time, higher = longer survival
# In short: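 Compounds were tested in mice carrying transplantable tumors. Survival or tumor size was recorded, and each value is the treated-group measurement (T) divided by that of the vehicle-treated control group (C).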
# [1] = dose: 25.0 mg/kg/injection, schedule: Q01DX009 (ip), vehicle: water
# [2] = dose: 50.0 mg/kg/injection, schedule: Q01DX009 (ip), vehicle: water
# [3] = dose: 25.0 mg/kg/injection, schedule: Q01DX009 (ip), vehicle: Klucel (hydroxypropylcellulose) (HPC)
# [4] = dose: 50.0 mg/kg/injection, schedule: Q01DX009 (ip), vehicle: Klucel (hydroxypropylcellulose) (HPC)
# [5] = dose: 50.0 mg/kg/injection, schedule: Q01DX009 (ip), vehicle: saline with Tween-80
# [6] = dose: 100.0 mg/kg/injection, schedule: Q01DX009 (ip), vehicle: saline with Tween-80
# [7] = dose: 200.0 mg/kg/injection, schedule: Q01DX009 (ip), vehicle: saline with Tween-80
# [8] = dose: 400.0 mg/kg/injection, schedule: Q01DX009 (ip), vehicle: saline with Tween-80
compound,measurement,setting,value
CCCCN=[N+]=[N-],T/C,[1],104 % of control
same,T/C,[2],98 % of control
same,T/C,"dose: 100.0 mg/kg/injection, schedule: Q01DX009 (ip), vehicle: water",100 % of control
same,T/C,"dose: 200.0 mg/kg/injection, schedule: Q01DX009 (ip), vehicle: water",98 % of control
COc1ccc(N2C(=O)CC(Sc3ccccc3N)C2=O)cc1 (stereo unspecified),T/C,[3],94 % of control
same,T/C,[4],86 % of control
same,T/C,"dose: 100.0 mg/kg/injection, schedule: Q01DX009 (ip), vehicle: Klucel (hydroxypropylcellulose) (HPC)",97 % of control
C[C@]12CC[C@@H]3c4ccc(Oc5nc(N6CC6)nc(N6CC6)n5)cc4CC[C@H]3[C@@H]1CCC2=O,T/C,"dose: 3.13 mg/kg/injection, schedule: Q01DX009 (ip), vehicle: saline",104 % of control
same,T/C,"dose: 6.25 mg/kg/injection, schedule: Q01DX009 (ip), vehicle: saline",113 % of control
same,T/C,"dose: 6.25 mg/kg/injection, schedule: Q04DX003 (ip), vehicle: saline",97 % of control
same,T/C,"dose: 12.5 mg/kg/injection, schedule: Q01DX009 (ip), vehicle: saline",104 % of control
same,T/C,"dose: 12.5 mg/kg/injection, schedule: Q04DX003 (ip), vehicle: saline",97 % of control
same,T/C,"dose: 25.0 mg/kg/injection, schedule: Q04DX003 (ip), vehicle: saline",102 % of control
same,T/C,"dose: 50.0 mg/kg/injection, schedule: Q04DX003 (ip), vehicle: saline",97 % of control
CC(C)CNC(=O)c1ccc(N=NN(C)Cc2ccncc2)cc1,T/C,"dose: 25.0 mg/kg/injection, schedule: Q01DX009 (ip), vehicle: saline with Tween-80",93 % of control
same,T/C,[5],97 % of control
same,T/C,[6],103 % of control
CCOC(=O)/C=C/c1ccc2c(c1)OCO2,T/C,"dose: 66.0 mg/kg/injection, schedule: Q04DX003 (ip), vehicle: saline with Tween-80",97 % of control
same,T/C,[6],104 % of control
same,T/C,"dose: 100.0 mg/kg/injection, schedule: Q04DX003 (ip), vehicle: saline with Tween-80",97 % of control
same,T/C,"dose: 150.0 mg/kg/injection, schedule: Q04DX003 (ip), vehicle: saline with Tween-80",100 % of control
same,T/C,[7],106 % of control
same,T/C,[8],102 % of control
CCCCC(SC(CC)(C(C)=O)c1ccccc1)C(N)=O (stereo unspecified),T/C,[5],89 % of control
same,T/C,[6],108 % of control
same,T/C,[7],87 % of control
same,T/C,[8],92 % of control
COc1cccc2c1C(=O)c1c(O)c3c(c(O)c1C2=O)C[C@@](O)(C(C)=O)C[C@@H]3OC1CC(N)C(O)C(C)O1 (stereo partly specified),T/C,"dose: 0.06 mg/kg/injection, schedule: Q01DX017 (ip), vehicle: clinical formulation",184 % of control
same,T/C,"dose: 0.06 mg/kg/injection, schedule: Q05DX010 (ip), vehicle: clinical formulation",160 % of control
same,T/C,"dose: 0.12 mg/kg/injection, schedule: Q01DX009 (ip), vehicle: clinical formulation",168 % of control
same,T/C,"dose: 0.12 mg/kg/injection, schedule: Q01DX017 (ip), vehicle: clinical formulation",178 % of control
same,T/C,"dose: 0.12 mg/kg/injection, schedule: Q05DX010 (ip), vehicle: clinical formulation",165 % of control
same,T/C,"dose: 0.13 mg/kg/injection, schedule: Q01DX009 (ip), vehicle: water",189 % of control
same,T/C,"dose: 0.2 mg/kg/injection, schedule: Q01DX009 (ip), vehicle: saline",170 % of control
same,T/C,"dose: 0.25 mg/kg/injection, schedule: Q01DX009 (ip), vehicle: clinical formulation",192 % of control
same,T/C,"dose: 0.25 mg/kg/injection, schedule: Q01DX017 (ip), vehicle: clinical formulation",226 % of control
same,T/C,"dose: 0.25 mg/kg/injection, schedule: Q03HX008 (ip), vehicle: saline",152 % of control
same,T/C,"dose: 0.25 mg/kg/injection, schedule: Q04DX003 (ip), vehicle: clinical formulation",162 % of control
same,T/C,"dose: 0.25 mg/kg/injection, schedule: Q04DX005 (ip), vehicle: clinical formulation",165 % of control
same,T/C,"dose: 0.25 mg/kg/injection, schedule: Q05DX010 (ip), vehicle: clinical formulation",237 % of control
same,T/C,"dose: 0.39 mg/kg/injection, schedule: Q01DX009 (ip), vehicle: saline",212 % of control
same,T/C,"dose: 0.5 mg/kg/injection, schedule: Q01DX009 (ip), vehicle: clinical formulation",292 % of control
same,T/C,"dose: 0.5 mg/kg/injection, schedule: Q01DX017 (ip), vehicle: clinical formulation",315 % of control
same,T/C,"dose: 0.5 mg/kg/injection, schedule: Q04DX005 (ip), vehicle: clinical formulation",215 % of control
same,T/C,"dose: 0.5 mg/kg/injection, schedule: Q05DX010 (ip), vehicle: clinical formulation",235 % of control
same,T/C,"dose: 0.5 mg/kg/injection, schedule: Q11DX018 (sc), vehicle: water",100 % of control
same,T/C,"dose: 0.78 mg/kg/injection, schedule: Q01DX009 (ip), vehicle: saline",238 % of control
same,T/C,"dose: 1.0 mg/kg/injection, schedule: Q01DX001 (ip), vehicle: clinical formulation",223 % of control
same,T/C,"dose: 1.0 mg/kg/injection, schedule: Q01DX009 (ip), vehicle: clinical formulation",204 % of control
same,T/C,"dose: 1.0 mg/kg/injection, schedule: Q01DX017 (ip), vehicle: clinical formulation",213 % of control
same,T/C,"dose: 1.0 mg/kg/injection, schedule: Q04DX003 (ip), vehicle: clinical formulation",217 % of control
same,T/C,"dose: 1.0 mg/kg/injection, schedule: Q04DX005 (ip), vehicle: clinical formulation",194 % of control
same,T/C,"dose: 1.0 mg/kg/injection, schedule: Q05DX010 (ip), vehicle: clinical formulation",200 % of control
same,T/C,"dose: 1.0 mg/kg/injection, schedule: Q11DX018 (sc), vehicle: water",111 % of control
same,T/C,"dose: 1.5 mg/kg/injection, schedule: Q01DX001 (ip), vehicle: water",287 % of control
same,T/C,"dose: 1.56 mg/kg/injection, schedule: Q01DX009 (ip), vehicle: saline",150 % of control
same,T/C,"dose: 2.0 mg/kg/injection, schedule: Q01DX001 (ip), vehicle: clinical formulation",204 % of control
same,T/C,"dose: 2.0 mg/kg/injection, schedule: Q01DX009 (ip), vehicle: clinical formulation",187 % of control
same,T/C,"dose: 2.0 mg/kg/injection, schedule: Q04DX003 (ip), vehicle: clinical formulation",215 % of control
same,T/C,"dose: 2.0 mg/kg/injection, schedule: Q04DX005 (ip), vehicle: clinical formulation",160 % of control
same,T/C,"dose: 2.0 mg/kg/injection, schedule: Q05DX010 (ip), vehicle: clinical formulation",110 % of control
same,T/C,"dose: 3.0 mg/kg/injection, schedule: Q01DX001 (ip), vehicle: water",287 % of control
same,T/C,"dose: 4.0 mg/kg/injection, schedule: Q01DX001 (ip), vehicle: clinical formulation",285 % of control
same,T/C,"dose: 6.0 mg/kg/injection, schedule: Q01DX001 (ip), vehicle: water",94 % of control and 103 % of control
same,T/C,"dose: 7.5 mg/kg/injection, schedule: Q01DX001 (ip), vehicle: water",107 % of control and 122 % of control
same,T/C,"dose: 10.0 mg/kg/injection, schedule: Q01DX001 (ip), vehicle: water",110 % of control
N=C(N)CCNC(=O)C1CCC(N)=N1 (stereo unspecified),T/C,"dose: 0.75 mg/kg/injection, schedule: Q01DX009 (ip), vehicle: saline",96 % of control
same,T/C,"dose: 1.5 mg/kg/injection, schedule: Q01DX009 (ip), vehicle: saline",88 % of control
same,T/C,"dose: 3.0 mg/kg/injection, schedule: Q01DX009 (ip), vehicle: saline",93 % of control
same,T/C,"dose: 6.0 mg/kg/injection, schedule: Q01DX009 (ip), vehicle: saline",99 % of control
C=C(C)C12OC3(CCCCCCCCC)OC1C1C4OC4(COC(=O)CCCCCCCCCCCCCCC)C(O)C4(O)C(=O)C(C)=CC4C1(O3)C(C)C2OC(=O)c1ccccc1 (stereo unspecified),T/C,"dose: 0.5 micrograms/kg/injection, schedule: Q01DX009 (ip), vehicle: saline",102 % of control
same,T/C,"dose: 1.0 micrograms/kg/injection, schedule: Q01DX009 (ip), vehicle: saline",105 % of control
same,T/C,"dose: 1.9 micrograms/kg/injection, schedule: Q01DX009 (ip), vehicle: saline",91 % of control
same,T/C,"dose: 3.8 micrograms/kg/injection, schedule: Q01DX009 (ip), vehicle: saline",110 % of control
same,T/C,"dose: 7.5 micrograms/kg/injection, schedule: Q01DX009 (ip), vehicle: saline",91 % of control
same,T/C,"dose: 15.0 micrograms/kg/injection, schedule: Q01DX009 (ip), vehicle: saline",100 % of control
same,T/C,"dose: 30.0 micrograms/kg/injection, schedule: Q01DX009 (ip), vehicle: saline",100 % of control
Cc1cc(C)c(NC(=O)Nc2cccc3ccccc23)c(C)c1,T/C,[3],91 % of control
same,T/C,[4],95 % of control
Cc1cnccc1Br,T/C,[1],96 % of control
same,T/C,[2],97 % of control
